Experimental data: patent US20220282271A1, “HERBICIDE RESISTANT PLANTS AND METHODS OF MAKING AND USING” (OFFICE OF INNOVATION ADVANCEMENT AND COMMERCIALIZATION, priority 2019, published 2022)

Legend:
[1] = biological target: T1, recombinant variant E. indica PPO1 A212T (Eleusine indica, UniProt A0A6G5XNV7, A212T); test: In vitro PPO enzyme activity inhibition, variant PPO1 A212T; assay type: biochemical; conditions: highest herbicide concentration 10^−5 M
[2] = biological target: T1, recombinant variant E. indica PPO1 A212T; test: as above; assay type: biochemical; conditions: for inhibition at 10 µM: read-out: Variant E. indica PPO1 A212T % inhibition
From the text: (§1) Effects of A212T substitution were studied using the E. indica backbone. The wild-type E. indica PPO1 and the E. indica PPO1 A212T variants were synthesized de novo and subcloned into pRSetB plasmid (Invitrogen, Carlsbad, Calif.). The complete description of expression and purification of E. indica PPO1 and E. indica PPO1 A212T variant proteins were referenced to the method described for PPO2 by Rangani et al. (2019, Frontiers in Plant Sci., 10:568). Six PPO inhibitors, belonging to five different chemical families, were evaluated on the PPO enzyme activity at a concentrations ranging from 5.00×10^−5M to 5.12×10^−12M. Oxadiazon, sulfentrazone, saflufenacil and lactofen are from the class of oxadiazole, triazolinone, pyrimidinedione, and diphenyl ether, respectively. Flumioxazin and trifludimoxazin are from the same chemical family, N-phenylphthalimide. […] The assay was replicated twice.

[3] = system: Eleusine indica biotypes (S, R1, R2); test: Herbicide rate screening assay (greenhouse, foliar-applied, visual injury); assay type: in vivo; conditions: for I50, estimated rate required to reduce Eleusine indica biotype by 50% (Visual Control/Injury) / I90, estimated rate required to reduce Eleusine indica biotype by 90% (Visual Control/Injury): injury scores 14 days after treatment; for Parameter estimate a of sigmoidal model y = a/(1 + exp(−(x − x0)/b)) for percent injury / Parameter estimate b of sigmoidal model y = a/(1 + exp(−(x − x0)/b)) for percent injury / Parameter estimate x0 of sigmoidal model y = a/(1 + exp(−(x − x0)/b)) for percent injury: x = log-transformed herbicide rate (kg/ha), 14 DAT
From the text: Three E. indica biotypes from different locations were used in this study. The R1 biotype was collected in Country Club of Virginia, Richmond, Va., and the R2 biotype was from River Bend Golf, New Bern, N.C. These two biotypes were previous confirmed resistant to preemergence application of oxadiazon, but have not been screened to other PPO inhibitors. The S biotype was collected from the Alabama Agricultural Experiment Station, Plant Breeding Unit, Tallassee, Ala., which was confirmed susceptible to PPO inhibitors. Seeds of the mature plants were harvested, air dried and stored in the 4° C. freezer until planted in the greenhouse.
Greenhouse conditions were 30±3° C. at day/night temperature and ˜70% average relative humidity. The E. indica seeds were placed on the soil surface and lightly covered with sand in 28 cm*20 cm flats and watered as needed daily to ensure germination. Two weeks after emergence, seedlings were separated and transplanted to in individual 10-cm pots (volumes=0.5 L). Pots were filled with surface horizon of Marvyn sandy loam (fine-loamy, kaolinitic, thermic Typic Kanhapludults) soil with pH 6.4 and 1.2% organic matter. The plants were irrigated three times daily for 2 min with overhead irrigation and fertilized once at one week after transplanting at approximately 50 kg N ha^−1 with Scott's Miracle-Gro All-Purpose fertilizer (The Scotts Miracle-Gro Co. Marysville, Ohio). Plants were 5-10 cm in height with 3-5 tillers in size at the time of herbicide treatment.
Herbicide treatments were foliar-applied at 280 L/ha using an enclosed spray chamber with a single 8002E nozzle (TeeJet Spray Systems Co, Wheaton, Ill.) at 32 PSI. Four herbicides were selected for the experiment: oxadiazon (Ronstar FLO, Bayer Environmental Sci., Research Triangle Park, N.C.), sulfentrazone (Dismiss, FMC Corporation, Philadelphia, Pa.), flumioxazin (Sureguard, Valent Corp., Walnut Creek, Calif.) and lactofen (Cobra, Valent Corp., Walnut Creek, Calif.). All the herbicides are from different herbicide chemical families of PPO inhibitors: oxadiazoles, triazolinone, N-phenylphthalimide and diphenyl ether, respectively. Herbicides were applied at 7 different rates based on each herbicide label rate: oxadiazon ranging from 0.14 to 8.96 kg/ha, sulfentrazone from 0.07 to 4.50 kg/ha, flumioxazin from 0.08 to 5.70 kg/ha, and lactofen from 0.029 to 1.75 kg/ha. A non-treated control (0 kg/ha) was included. 192 plants of each biotype were tested and experiments were conducted as completely random design, three replications for two runs.
The visual injury rating scores per plant at 14 days after treatment (DAT) were recorded, where the visual injury rating scores were based on a 0 to 100 scale, which 0 is equated to no phytotoxicity and 100 is equated to complete control. Data subjected to ANOVA analysis at a significance level of P<0.05 using the PROC GLM procedure of SAS 9.4 (SAS Institute Inc., Cary, N.C.). All the herbicide rates were log transformed to make equal spacing between the herbicide treatments in order to facilitate regression analysis. The non-treated control was transformed to equal spacing based on the log rates of each herbicide, respectively. Data were fitted to a sigmoidal model using SigmaPlot 10.2 (Systat Software Inc., London, UK) using a sigmoidal function (Equation 1).
y=a/(1+e^(−((x−x0)/b))) (1)
In this fit sigmoidal model, where y represents E. indica visual damage relative to non-treated control (%), x represents the log-transformed herbicide rates (kg/ha), three parameters (a, b, x0) represents the y intercept.

[4] = biological target: T2, recombinant wild-type E. indica PPO1 (Eleusine indica, UniProt A0A6G5XNV7); test: In vitro PPO enzyme activity inhibition, wild-type PPO1; assay type: biochemical; conditions: for Wild-type E. indica PPO1 % inhibition / inhibition at 10 µM: highest herbicide concentration 10^−5 M
T2 sequence (A0A6G5XNV7 1-529): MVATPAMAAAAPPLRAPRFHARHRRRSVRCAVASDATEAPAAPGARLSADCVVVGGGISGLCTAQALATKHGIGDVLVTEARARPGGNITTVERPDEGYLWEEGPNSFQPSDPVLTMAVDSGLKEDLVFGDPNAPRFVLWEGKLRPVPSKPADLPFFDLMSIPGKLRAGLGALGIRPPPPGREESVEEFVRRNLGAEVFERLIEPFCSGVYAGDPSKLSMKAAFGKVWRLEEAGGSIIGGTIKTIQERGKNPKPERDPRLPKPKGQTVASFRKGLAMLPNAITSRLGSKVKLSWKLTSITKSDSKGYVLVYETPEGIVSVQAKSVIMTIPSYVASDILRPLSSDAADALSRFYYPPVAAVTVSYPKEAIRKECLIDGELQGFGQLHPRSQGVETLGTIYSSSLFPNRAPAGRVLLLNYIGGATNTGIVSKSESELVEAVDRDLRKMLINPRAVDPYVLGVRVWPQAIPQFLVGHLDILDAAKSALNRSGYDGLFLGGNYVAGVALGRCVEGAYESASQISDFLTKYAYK
From the text: as §1, with “Six PPO inhibitors, belonging to five different chemical families, were evaluated on the PPO enzyme activity at a concentrations ranging from 5.00×10^−5M to 5.12×10^−12M.” left out

T1 sequence (A0A6G5XNV7 entry or part of it A212T): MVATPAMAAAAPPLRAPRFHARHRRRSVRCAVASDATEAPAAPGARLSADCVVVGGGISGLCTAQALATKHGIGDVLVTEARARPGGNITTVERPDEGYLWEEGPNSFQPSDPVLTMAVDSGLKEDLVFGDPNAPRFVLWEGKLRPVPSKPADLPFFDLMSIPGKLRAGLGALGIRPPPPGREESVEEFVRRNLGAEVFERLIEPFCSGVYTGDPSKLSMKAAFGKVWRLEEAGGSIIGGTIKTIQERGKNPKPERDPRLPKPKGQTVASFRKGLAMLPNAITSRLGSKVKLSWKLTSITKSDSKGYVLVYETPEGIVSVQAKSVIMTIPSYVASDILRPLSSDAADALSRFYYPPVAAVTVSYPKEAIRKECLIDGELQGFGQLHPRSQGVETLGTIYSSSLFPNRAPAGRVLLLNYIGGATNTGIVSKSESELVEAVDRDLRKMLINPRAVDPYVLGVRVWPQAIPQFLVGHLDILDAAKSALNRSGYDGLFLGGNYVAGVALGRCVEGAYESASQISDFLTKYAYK

| SMILES | Variant E. indica PPO1 A212T % inhibition [1] [%] | IC50 [2] [nM] | inhibition at 10 µM [2] [%] | I50, estimated rate required to reduce Eleusine indica biotype by 50% (Visual Control/Injury) ([3]; R1 biotype) [kg ha^−1] | I90, estimated rate required to reduce Eleusine indica biotype by 90% (Visual Control/Injury) ([3]; R1 biotype) [kg ha^−1] | Parameter estimate a of sigmoidal model y = a/(1 + exp(−(x − x0)/b)) for percent injury ([3]; R1 biotype) | Parameter estimate b of sigmoidal model y = a/(1 + exp(−(x − x0)/b)) for percent injury ([3]; R1 biotype) | Parameter estimate x0 of sigmoidal model y = a/(1 + exp(−(x − x0)/b)) for percent injury ([3]; R1 biotype) | I50, estimated rate required to reduce Eleusine indica biotype by 50% (Visual Control/Injury) ([3]; R2 biotype) [kg ha^−1] | I90, estimated rate required to reduce Eleusine indica biotype by 90% (Visual Control/Injury) ([3]; R2 biotype) [kg ha^−1] | Parameter estimate a of sigmoidal model y = a/(1 + exp(−(x − x0)/b)) for percent injury ([3]; R2 biotype) | Parameter estimate b of sigmoidal model y = a/(1 + exp(−(x − x0)/b)) for percent injury ([3]; R2 biotype) | Parameter estimate x0 of sigmoidal model y = a/(1 + exp(−(x − x0)/b)) for percent injury ([3]; R2 biotype) | I50, estimated rate required to reduce Eleusine indica biotype by 50% (Visual Control/Injury) ([3]; S biotype) [kg ha^−1] | I90, estimated rate required to reduce Eleusine indica biotype by 90% (Visual Control/Injury) ([3]; S biotype) [kg ha^−1] | Parameter estimate a of sigmoidal model y = a/(1 + exp(−(x − x0)/b)) for percent injury ([3]; S biotype) | Parameter estimate b of sigmoidal model y = a/(1 + exp(−(x − x0)/b)) for percent injury ([3]; S biotype) | Parameter estimate x0 of sigmoidal model y = a/(1 + exp(−(x − x0)/b)) for percent injury ([3]; S biotype) | IC50 [4] [nM] | Wild-type E. indica PPO1 % inhibition [4] [%] | other results |
| --- | --- | --- | --- | --- | --- | --- | --- | --- | --- | --- | --- | --- | --- | --- | --- | --- | --- | --- | --- | --- | --- |
| C#CCN1C(=O)COc2cc(F)c(N3C(=O)C4=C(CCCC4)C3=O)cc21 [Flumioxazin, flumioxazin] | >90 | 13.4 | > 90 | 0.08 | 0.10 | 96.53 | 0.04 | −1.11 | 0.08 | 0.10 | 96.81 | 0.04 | −1.11 | 0.08 | 0.09 | 98.00 | 0.02 | −1.09 | 16.7 | >90 | inhibition at 10 µM [4]: > 90% |
| CCOC(=O)C(C)OC(=O)c1cc(Oc2ccc(C(F)(F)F)cc2Cl)ccc1[N+](=O)[O-] (stereo not drawn) [Lactofen, lactofen] | >90 | 362 | > 90 | 0.04 | 0.51 | 84.65 | 0.29 | −1.44 | 0.06 | 0.50 | 89.20 | 0.30 | −1.31 | 0.03 | 0.17 | 90.29 | 0.13 | −1.52 | 26.4 | >90 | inhibition at 10 µM [4]: > 90% |
